Data reported in PubChem BioAssay (NCI).
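How tested: cells in 96-well plates exposed to compound for 48 hours at five concentrations. TGI: concentration producing complete growth inhibition.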

Assays:
Test in all cases: inhibition of tumour cell growth, NCI panel, 48 h
786-0 renal = tested on: 786-0 renal
A498 renal = tested on: A498 renal
A549 NSCLC = tested on: A549 NSCLC
ACHN renal = tested on: ACHN renal
CAKI-1 renal = tested on: CAKI-1 renal
CCRF-CEM leukemia = tested on: CCRF-CEM leukemia
COLO 205 colon = tested on: COLO 205 colon
DLD-1 colon = tested on: DLD-1 colon
DMS 114 small cell lung = tested on: DMS 114 small cell lung
DMS 273 small cell lung = tested on: DMS 273 small cell lung
EKVX NSCLC = tested on: EKVX NSCLC
HCC-2998 colon = tested on: HCC-2998 colon
HCT-116 colon = tested on: HCT-116 colon
HCT-15 colon = tested on: HCT-15 colon
HL-60(TB) leukemia = tested on: HL-60(TB) leukemia
HOP-62 NSCLC = tested on: HOP-62 NSCLC
HOP-92 NSCLC = tested on: HOP-92 NSCLC
HT29 colon = tested on: HT29 colon
IGROV1 ovarian = tested on: IGROV1 ovarian
K-562 leukemia = tested on: K-562 leukemia
KM12 colon = tested on: KM12 colon
KM20L2 colon = tested on: KM20L2 colon
LOX IMVI melanoma = tested on: LOX IMVI melanoma
LXFL 529 NSCLC = tested on: LXFL 529 NSCLC
M14 melanoma = tested on: M14 melanoma
M19-MEL melanoma = tested on: M19-MEL melanoma
MALME-3M melanoma = tested on: MALME-3M melanoma
MOLT-4 leukemia = tested on: MOLT-4 leukemia
NCI-H226 lung = tested on: NCI-H226 lung
NCI-H23 lung = tested on: NCI-H23 lung
NCI-H460 lung = tested on: NCI-H460 lung
NCI-H522 lung = tested on: NCI-H522 lung
OVCAR-3 ovarian = tested on: OVCAR-3 ovarian
OVCAR-4 ovarian = tested on: OVCAR-4 ovarian
OVCAR-5 ovarian = tested on: OVCAR-5 ovarian
OVCAR-8 ovarian = tested on: OVCAR-8 ovarian
RXF 393 renal = tested on: RXF 393 renal
SF-268 CNS = tested on: SF-268 CNS
SF-295 CNS = tested on: SF-295 CNS
SF-539 CNS = tested on: SF-539 CNS
SK-MEL-2 melanoma = tested on: SK-MEL-2 melanoma
SK-MEL-28 melanoma = tested on: SK-MEL-28 melanoma
SK-MEL-5 melanoma = tested on: SK-MEL-5 melanoma
SK-OV-3 ovarian = tested on: SK-OV-3 ovarian
SN12C renal = tested on: SN12C renal
SNB-19 CNS = tested on: SNB-19 CNS
SNB-75 CNS = tested on: SNB-75 CNS
SNB-78 CNS = tested on: SNB-78 CNS
SR leukemia = tested on: SR leukemia
SW-620 colon = tested on: SW-620 colon
TK-10 renal = tested on: TK-10 renal
U251 CNS = tested on: U251 CNS
UACC-257 melanoma = tested on: UACC-257 melanoma
UACC-62 melanoma = tested on: UACC-62 melanoma
UO-31 renal = tested on: UO-31 renal
XF 498 CNS = tested on: XF 498 CNS
HOP-18 NSCLC = tested on: HOP-18 NSCLC
RPMI-8226 leukemia = tested on: RPMI-8226 leukemia

Work on `O=C(O)/C(Cl)=C(\Cl)C(=O)c1ccccc1` yielded a TGI (786-0 renal) of over 100 µM, a TGI (A498 renal) of over 100 µM and a TGI (A549 NSCLC) of over 100 µM. The TGI (ACHN renal) was over 100 µM, the TGI (CAKI-1 renal) was over 100 µM and the TGI (CCRF-CEM leukemia) was over 100 µM. It also gave a TGI (COLO 205 colon) of over 100 µM, a TGI (DLD-1 colon) of over 100 µM and a TGI (DMS 114 small cell lung) of over 100 µM. For the same compound, the TGI (DMS 273 small cell lung) was over 100 µM, the TGI (EKVX NSCLC) was over 100 µM and the TGI (HCC-2998 colon) was over 100 µM. For the same compound, the TGI (HCT-116 colon) was over 100 µM, the TGI (HCT-15 colon) was over 100 µM and the TGI (HL-60(TB) leukemia) was over 100 µM. It also gave a TGI (HOP-62 NSCLC) of over 100 µM, a TGI (HOP-92 NSCLC) of over 100 µM and a TGI (HT29 colon) of over 100 µM. The TGI (IGROV1 ovarian) was over 100 µM, the TGI (K-562 leukemia) was over 100 µM and the TGI (KM12 colon) was over 100 µM. It also gave a TGI (KM20L2 colon) of over 100 µM, a TGI (LOX IMVI melanoma) of over 100 µM and a TGI (LXFL 529 NSCLC) of over 100 µM. The TGI (M14 melanoma) was over 100 µM, the TGI (M19-MEL melanoma) was over 100 µM and the TGI (MALME-3M melanoma) was over 100 µM. The TGI (MOLT-4 leukemia) was over 100 µM, the TGI (NCI-H226 lung) was over 100 µM and the TGI (NCI-H23 lung) was over 100 µM. The TGI (NCI-H460 lung) was over 100 µM, the TGI (NCI-H522 lung) was over 100 µM and the TGI (OVCAR-3 ovarian) was over 100 µM. For the same compound, the TGI (OVCAR-4 ovarian) was over 100 µM, the TGI (OVCAR-5 ovarian) was over 100 µM and the TGI (OVCAR-8 ovarian) was over 100 µM. For the same compound, the TGI (RXF 393 renal) was over 100 µM, the TGI (SF-268 CNS) was over 100 µM and the TGI (SF-295 CNS) was over 100 µM. The TGI (SF-539 CNS) was over 100 µM, the TGI (SK-MEL-2 melanoma) was over 100 µM and the TGI (SK-MEL-28 melanoma) was over 100 µM. The TGI (SK-MEL-5 melanoma) was over 100 µM, the TGI (SK-OV-3 ovarian) was over 100 µM and the TGI (SN12C renal) was over 100 µM. The TGI (SNB-19 CNS) was over 100 µM, the TGI (SNB-75 CNS) was over 100 µM and the TGI (SNB-78 CNS) was over 100 µM. The TGI (SR leukemia) was over 100 µM, the TGI (SW-620 colon) was over 100 µM and the TGI (TK-10 renal) was over 100 µM. For the same compound, the TGI (U251 CNS) was over 100 µM, the TGI (UACC-257 melanoma) was over 100 µM and the TGI (UACC-62 melanoma) was over 100 µM. For the same compound, the TGI (UO-31 renal) was over 100 µM and the TGI (XF 498 CNS) was over 100 µM.

Work on `O=C(/C=C\c1cccc2ccccc12)c1ccc(F)cc1` yielded a TGI (786-0 renal) of 32.1 µM, a TGI (A498 renal) of over 100 µM and a TGI (A549 NSCLC) of 81.2 µM. The TGI (ACHN renal) was 30.8 µM, the TGI (CAKI-1 renal) was 35.3 µM and the TGI (CCRF-CEM leukemia) was 41.8 µM. The TGI (COLO 205 colon) was 35.3 µM, the TGI (DLD-1 colon) was 37.6 µM and the TGI (DMS 114 small cell lung) was 29.5 µM. It also gave a TGI (DMS 273 small cell lung) of 29.4 µM, a TGI (EKVX NSCLC) of 35.2 µM and a TGI (HCC-2998 colon) of 35.8 µM. The TGI (HCT-116 colon) was 26.8 µM, the TGI (HCT-15 colon) was 31.8 µM and the TGI (HL-60(TB) leukemia) was 53 µM. The TGI (HOP-18 NSCLC) was 28.2 µM, the TGI (HOP-62 NSCLC) was over 100 µM and the TGI (HOP-92 NSCLC) was 39.8 µM. For the same compound, the TGI (HT29 colon) was 36.6 µM, the TGI (IGROV1 ovarian) was 29.4 µM and the TGI (K-562 leukemia) was 33.2 µM. For the same compound, the TGI (KM12 colon) was 28.8 µM, the TGI (KM20L2 colon) was 31.1 µM and the TGI (LXFL 529 NSCLC) was 30.8 µM. For the same compound, the TGI (M14 melanoma) was 29.9 µM, the TGI (M19-MEL melanoma) was 39.4 µM and the TGI (MALME-3M melanoma) was 32.1 µM. The TGI (MOLT-4 leukemia) was 74.2 µM, the TGI (NCI-H226 lung) was over 100 µM and the TGI (NCI-H23 lung) was 45.1 µM. For the same compound, the TGI (NCI-H460 lung) was 33.2 µM, the TGI (NCI-H522 lung) was 40.2 µM and the TGI (OVCAR-3 ovarian) was 30.9 µM. The TGI (OVCAR-4 ovarian) was 36.9 µM, the TGI (OVCAR-5 ovarian) was 33.2 µM and the TGI (OVCAR-8 ovarian) was 28.4 µM. It also gave a TGI (SF-268 CNS) of 30.8 µM, a TGI (SF-295 CNS) of 41.1 µM and a TGI (SF-539 CNS) of 41.4 µM. For the same compound, the TGI (SK-MEL-28 melanoma) was 26.4 µM, the TGI (SK-MEL-5 melanoma) was 33 µM and the TGI (SK-OV-3 ovarian) was 58.3 µM. For the same compound, the TGI (SN12C renal) was 32.3 µM, the TGI (SNB-19 CNS) was 31 µM and the TGI (SNB-75 CNS) was 75.3 µM. For the same compound, the TGI (SNB-78 CNS) was 38.5 µM, the TGI (SW-620 colon) was 20.4 µM and the TGI (TK-10 renal) was 37.4 µM. For the same compound, the TGI (U251 CNS) was 29.9 µM, the TGI (UACC-257 melanoma) was 34.7 µM and the TGI (UACC-62 melanoma) was 27.5 µM. The TGI (UO-31 renal) was 32.4 µM.

Work on `N#CCc1c(-c2ccccc2)n(S(=O)(=O)c2ccccc2)c2ccccc12` yielded a TGI (786-0 renal) of over 100 µM, a TGI (A549 NSCLC) of over 100 µM and a TGI (ACHN renal) of over 100 µM. It also gave a TGI (CAKI-1 renal) of over 100 µM, a TGI (CCRF-CEM leukemia) of over 100 µM and a TGI (COLO 205 colon) of over 100 µM. It also gave a TGI (DLD-1 colon) of over 100 µM, a TGI (DMS 114 small cell lung) of over 100 µM and a TGI (DMS 273 small cell lung) of over 100 µM. It also gave a TGI (HCC-2998 colon) of over 100 µM, a TGI (HCT-116 colon) of over 100 µM and a TGI (HCT-15 colon) of over 100 µM. The TGI (HL-60(TB) leukemia) was over 100 µM, the TGI (HOP-62 NSCLC) was over 100 µM and the TGI (HOP-92 NSCLC) was over 100 µM. The TGI (HT29 colon) was over 100 µM, the TGI (IGROV1 ovarian) was over 100 µM and the TGI (K-562 leukemia) was over 100 µM. For the same compound, the TGI (KM12 colon) was over 100 µM, the TGI (KM20L2 colon) was over 100 µM and the TGI (LXFL 529 NSCLC) was over 100 µM. For the same compound, the TGI (M14 melanoma) was over 100 µM, the TGI (M19-MEL melanoma) was over 100 µM and the TGI (MALME-3M melanoma) was over 100 µM. The TGI (MOLT-4 leukemia) was over 100 µM, the TGI (NCI-H226 lung) was over 100 µM and the TGI (NCI-H23 lung) was over 100 µM. The TGI (NCI-H460 lung) was over 100 µM, the TGI (OVCAR-3 ovarian) was over 100 µM and the TGI (OVCAR-4 ovarian) was over 100 µM. It also gave a TGI (OVCAR-5 ovarian) of over 100 µM, a TGI (OVCAR-8 ovarian) of over 100 µM and a TGI (RPMI-8226 leukemia) of over 100 µM. It also gave a TGI (SF-268 CNS) of over 100 µM, a TGI (SF-295 CNS) of over 100 µM and a TGI (SF-539 CNS) of over 100 µM. For the same compound, the TGI (SK-MEL-2 melanoma) was over 100 µM, the TGI (SK-MEL-28 melanoma) was over 100 µM and the TGI (SK-MEL-5 melanoma) was over 100 µM. The TGI (SNB-19 CNS) was over 100 µM, the TGI (SNB-75 CNS) was 62 µM and the TGI (SR leukemia) was over 100 µM. It also gave a TGI (SW-620 colon) of over 100 µM, a TGI (TK-10 renal) of over 100 µM and a TGI (U251 CNS) of over 100 µM. For the same compound, the TGI (UACC-257 melanoma) was over 100 µM, the TGI (UACC-62 melanoma) was over 100 µM and the TGI (UO-31 renal) was over 100 µM. The TGI (XF 498 CNS) was over 100 µM.
